Several values for one entry are separate records, joined by “and”; a condition that tells them apart may be missing. Equal values may be shown once. Numbers after ± are expanded uncertainties.
Experiment: xn = mol fraction of the nth substance listed
Details: Constant-volume piezometry

`CCCCC` [pentane] + CCCO gave a mass density (473.15 K, 3570 kPa, Gas, x1 = 0.9) of 221.23 ± 3.4 kg/m3, a mass density (473.15 K, 3581 kPa, Fluid (supercritical or subcritical phases), x1 = 0.9) of 202.87 ± 2.5 kg/m3 and a mass density (473.15 K, 3589 kPa, Fluid (supercritical or subcritical phases), x1 = 0.9) of 221.23 ± 2.3 kg/m3. The mass density (473.15 K, 3592 kPa, Gas, x1 = 0.8) was 140.64 ± 0.48 kg/m3, the mass density (473.15 K, 3596 kPa, Fluid (supercritical or subcritical phases), x1 = 0.9) was 233.64 ± 2.3 kg/m3 and 237.11 ± 2.2 kg/m3 and the mass density (473.15 K, 3598 kPa, Fluid (supercritical or subcritical phases), x1 = 0.9) was 241.52 ± 2.2 kg/m3. It also gave a mass density (473.15 K, 3600 kPa, Fluid (supercritical or subcritical phases), x1 = 0.9) of 244.84 ± 2.1 kg/m3, a mass density (473.15 K, 3614 kPa, Fluid (supercritical or subcritical phases), x1 = 0.9) of 282.71 ± 1.5 kg/m3 and a mass density (473.15 K, 3634 kPa, Fluid (supercritical or subcritical phases), x1 = 0.9) of 302.44 ± 4.3 kg/m3. For the same compound, the mass density (473.15 K, 3679 kPa, Fluid (supercritical or subcritical phases), x1 = 0.9) was 313.12 ± 1.8 kg/m3, the mass density (473.15 K, 3689 kPa, Fluid (supercritical or subcritical phases), x1 = 0.8) was 316.17 ± 1.6 kg/m3 and the mass density (473.15 K, 3767 kPa, Liquid, x1 = 0.8) was 311.76 ± 0.65 kg/m3. For the same compound, the mass density (473.15 K, 3769 kPa, Liquid, x1 = 0.8) was 312.18 ± 0.65 kg/m3, the mass density (473.15 K, 3862 kPa, Liquid, x1 = 0.8) was 334.71 ± 0.8 kg/m3 and the mass density (473.15 K, 3867 kPa, Fluid (supercritical or subcritical phases), x1 = 0.9) was 334.89 ± 1.7 kg/m3. The mass density (473.15 K, 4019 kPa, Liquid, x1 = 0.8) was 346.27 ± 0.73 kg/m3, the mass density (473.15 K, 4251 kPa, Fluid (supercritical or subcritical phases), x1 = 0.9) was 355.05 ± 1.8 kg/m3 and the mass density (473.15 K, 4349 kPa, Liquid, x1 = 0.5) was 442.18 ± 0.9 kg/m3. It also gave a mass density (473.15 K, 4439 kPa, Liquid, x1 = 0.8) of 362.89 ± 0.74 kg/m3, a mass density (473.15 K, 5156 kPa, Liquid, x1 = 0.5) of 452.53 ± 0.92 kg/m3 and a mass density (473.15 K, 5785 kPa, Liquid, x1 = 0.5) of 459.62 ± 0.93 kg/m3. It also gave a mass density (473.15 K, 6747 kPa, Fluid (supercritical or subcritical phases), x1 = 0.9) of 408.4 ± 2 kg/m3, a mass density (473.15 K, 6942 kPa, Liquid, x1 = 0.5) of 469.49 ± 0.95 kg/m3 and a mass density (473.15 K, 7120 kPa, Liquid, x1 = 0.8) of 419.36 ± 0.85 kg/m3. The mass density (473.15 K, 7219 kPa, Liquid, x1 = 0.2) was 548.71 ± 1.1 kg/m3, the mass density (473.15 K, 13549 kPa, Liquid, x1 = 0.5) was 508.06 ± 1 kg/m3 and the mass density (473.15 K, 13806 kPa, Liquid, x1 = 0.8) was 468.05 ± 0.95 kg/m3. It also gave a mass density (473.15 K, 16233 kPa, Liquid, x1 = 0.5) of 520.92 ± 1.1 kg/m3, a mass density (473.15 K, 16852 kPa, Liquid, x1 = 0.2) of 583.19 ± 1.2 kg/m3 and a mass density (473.15 K, 20923 kPa, Liquid, x1 = 0.8) of 497.59 ± 1 kg/m3. For the same compound, the mass density (473.15 K, 22686 kPa, Liquid, x1 = 0.2) was 596.85 ± 1.2 kg/m3, the mass density (473.15 K, 24900 kPa, Liquid, x1 = 0.5) was 549.88 ± 1.1 kg/m3 and the mass density (473.15 K, 30448 kPa, Liquid, x1 = 0.8) was 522.21 ± 1.1 kg/m3. It also gave a mass density (473.15 K, 32094 kPa, Liquid, x1 = 0.2) of 616.32 ± 1.3 kg/m3, a mass density (473.15 K, 38268 kPa, Liquid, x1 = 0.5) of 576.1 ± 1.2 kg/m3 and a mass density (473.15 K, Liquid, x1 = 0.5) of 418.35 ± 2.5 kg/m3. It also gave a mass density (474.15 K, 3452 kPa, Liquid, x1 = 0.5) of 418.33 ± 0.85 kg/m3, a mass density (474.15 K, 3457 kPa, Liquid, x1 = 0.5) of 418.33 ± 0.85 kg/m3 and a mass density (474.15 K, 3855 kPa, Liquid, x1 = 0.8) of 311.75 ± 0.71 kg/m3. The mass density (474.15 K, 3858 kPa, Liquid, x1 = 0.8) was 312.16 ± 0.71 kg/m3, the mass density (474.15 K, Liquid, x1 = 0.8) was 299.93 ± 1.8 kg/m3 and the mass density (475.15 K, 3641 kPa, Liquid, x1 = 0.5) was 418.31 ± 0.85 kg/m3. It also gave a mass density (475.15 K, 3789 kPa, Fluid (supercritical or subcritical phases), x1 = 0.9) of 302.41 ± 1.5 kg/m3, a mass density (475.15 K, 3944 kPa, Liquid, x1 = 0.8) of 312.15 ± 0.66 kg/m3 and a mass density (475.25 K, Liquid, x1 = 0.8) of 289.08 ± 1.7 kg/m3. It also gave a mass density (475.65 K, Liquid, x1 = 0.8) of 273.18 ± 1.6 kg/m3, a mass density (475.95 K, Liquid, x1 = 0.8) of 259.17 ± 1.6 kg/m3 and a mass density (476.15 K, Liquid, x1 = 0.8) of 245.91 ± 1.5 kg/m3. The mass density (476.35 K, Liquid, x1 = 0.2) was 510.98 ± 3.1 kg/m3, the mass density (476.45 K, Liquid, x1 = 0.5) was 399.12 ± 2.4 kg/m3 and the mass density (477.15 K, 3017 kPa, Liquid, x1 = 0.2) was 510.96 ± 1 kg/m3. It also gave a mass density (478.15 K, 3181 kPa, Gas, x1 = 0.5) of 89.1 ± 0.28 kg/m3, a mass density (478.15 K, 3700 kPa, Liquid, x1 = 0.5) of 399.08 ± 0.81 kg/m3 and a mass density (478.15 K, 3850 kPa, Fluid (supercritical or subcritical phases), x1 = 0.8) of 214.32 ± 1.7 kg/m3. For the same compound, the mass density (478.15 K, 3857 kPa, Fluid (supercritical or subcritical phases), x1 = 0.8) was 220.1 ± 1.7 kg/m3, the mass density (478.15 K, 3944 kPa, Fluid (supercritical or subcritical phases), x1 = 0.8) was 273.15 ± 1.9 kg/m3 and the mass density (480.15 K, 3218 kPa, Gas, x1 = 0.5) was 89.09 ± 0.28 kg/m3. For the same compound, the mass density (480.15 K, 3965 kPa, Fluid (supercritical or subcritical phases), x1 = 0.8) was 220.08 ± 1.2 kg/m3, the mass density (480.15 K, 4198 kPa, Fluid (supercritical or subcritical phases), x1 = 0.9) was 302.34 ± 1.5 kg/m3 and the mass density (482.15 K, 3886 kPa, Liquid, x1 = 0.5) was 384.8 ± 0.78 kg/m3. It also gave a mass density (482.15 K, Liquid, x1 = 0.5) of 373.68 ± 2.2 kg/m3, a mass density (483.15 K, 867 kPa, Gas, x1 = 0.5) of 15.55 ± 0.05 kg/m3 and a mass density (483.15 K, 1195 kPa, Gas, x1 = 0.8) of 22.57 ± 0.07 kg/m3. It also gave a mass density (483.15 K, 1378 kPa, Gas, x1 = 0.2) of 24.98 ± 0.08 kg/m3, a mass density (483.15 K, 1547 kPa, Gas, x1 = 0.5) of 30.04 ± 0.09 kg/m3 and a mass density (483.15 K, 1753 kPa, Gas, x1 = 0.8) of 36.76 ± 0.11 kg/m3. The mass density (483.15 K, 2012 kPa, Gas, x1 = 0.5) was 40.56 ± 0.13 kg/m3, the mass density (483.15 K, 2335 kPa, Gas, x1 = 0.5) was 51.19 ± 0.16 kg/m3 and the mass density (483.15 K, 2505 kPa, Gas, x1 = 0.8) was 58.52 ± 0.18 kg/m3. The mass density (483.15 K, 2571 kPa, Gas, x1 = 0.2) was 53.11 ± 0.16 kg/m3, the mass density (483.15 K, 2845 kPa, Gas, x1 = 0.5) was 67.65 ± 0.21 kg/m3 and the mass density (483.15 K, 2913 kPa, Gas, x1 = 0.8) was 73.93 ± 0.23 kg/m3. It also gave a mass density (483.15 K, 2963 kPa, Gas, x1 = 0.5) of 72.74 ± 0.23 kg/m3 and a mass density (483.15 K, 3039 kPa, Gas, x1 = 0.9) of 83.54 ± 0.45 kg/m3.
